{"source": "patent EP4353088A1", "about": "“COMPOSITIONS OR COMBINED PREPARATIONS OF ESSENTIAL OILS AND L-CARNITINE” (Servicio Andaluz de Salud, priority 2022, dated 2024)", "key": {"[1]": {"system": "protein carbonyls and pentosidine", "assay": "Protein carbonyls (AAS, GGS) and pentosidine in plasma (fluorescent HPLC)", "assay_type": "in vivo, mice", "conditions": "L-carnitine (0.02%, w/v) in drinking water for 40 days; carnitine group vs control group", "procedure": "(§1) A humanized gnotobiotic mouse model was developed through the fecal microbiota transplantation of human feces into germ-free mice. Prior to the transplantation procedure, 18-week-old mice (n = 40) were orally treated by gavage with 200 µL of antibiotic cocktail composed of vancomycin (5 mg mL^-1), neomycin, metronidazole and ampicillin 155 (10 mg mL^-1) in order to deplete the bacterial content. An all-bacteria qPCR was performed with universal 16S rRNA primers that detect a broad range of bacterial species to verify complete absence of detectable bacteria in the feces.\n(§2) Then, mice received a fecal microbiota transplantation from a selection of patients to recolonize the gastrointestinal tract, as previously described. Specifically, three patients with IHD, T2DM and high plasma levels of TMAO were eligible for feces donation. Fresh fecal samples were suspended in sterile phosphate buffered saline (PBS) and glycerol was added at 10 % (v/v) final concentration; then, samples were aliquoted into cryotubes and immediately stored at -80 °C. At the moment of the transplantation, aliquot samples from these patients were thawed in ice and mixed in equal quantities as a sample pool to guarantee that every mouse received a similar microbiota load. The sample pool was centrifuged for 2 minutes at 2,800 xg, and the supernatant was transferred to mice by oral gavage for three consecutive days according to previously published protocols. Mice were moved to clean cages every two days to minimize the coprophagia and to prevent reinoculation from old feces. […]"}, "[2]": {"system": "cardiovascular disease markers", "assay": "Cardiovascular markers in plasma (Mouse CVD Magnetic Bead Panel 1)", "assay_type": "in vivo, mice", "conditions": "L-carnitine (0.02%, w/v) in drinking water for 40 days; carnitine group vs control group", "procedure": "as §1\nas §2, with “load.” for “load. The sample pool was centrifuged for 2 minutes at 2,800 xg, and the supernatant was transferred to mice by oral gavage for three consecutive days according to previously published protocols. Mice were moved to clean cages every two days to minimize the coprophagia and to prevent reinoculation from old feces.”"}, "[3]": {"system": "gut microbiota", "assay": "Fecal microbiota analysis by 16S rRNA gene sequencing in humanized gnotobiotic mice", "assay_type": "in vivo", "procedure": "as §2, with “A humanized gnotobiotic mouse model was developed through the fecal microbiota transplantation of human feces into germ-free mice. Prior to the transplantation procedure, 18-week-old mice (n = 40) were orally treated by gavage with 200 μL of antibiotic cocktail composed of vancomycin (5 mg mL^-1), neomycin, metronidazole and ampicillin 155 (10 mg mL^-1) in order to deplete the bacterial content. An all-bacteria qPCR was performed with universal 16S rRNA primers that detect a broad range of bacterial species to verify complete absence of detectable bacteria in the feces. Then,” for “Then,”"}, "[4]": {"system": "TMA and TMAO", "assay": "L-carnitine, TMA and TMAO levels in plasma (LC-MS) of humanized gnotobiotic mice", "assay_type": "in vivo", "conditions": "L-carnitine (0.02%, w/v) in drinking water for 40 days; carnitine group vs control group", "procedure": "as §1, §2"}, "[5]": {"system": "SCFA species", "assay": "SCFA species in feces (GC-FID) of humanized gnotobiotic mice", "assay_type": "in vivo", "conditions": "L-carnitine (0.02%, w/v) in drinking water for 40 days; carnitine group vs control group", "procedure": "as §1\nas §2, with “load.” for “load. The sample pool was centrifuged for 2 minutes at 2,800 xg, and the supernatant was transferred to mice by oral gavage for three consecutive days according to previously published protocols. Mice were moved to clean cages every two days to minimize the coprophagia and to prevent reinoculation from old feces.”"}, "[6]": {"system": "cytokines and chemokines", "assay": "Cytokines and chemokines in plasma (ProcartaPlex 26-Plex)", "assay_type": "in vivo, mice", "conditions": "L-carnitine (0.02%, w/v) in drinking water for 40 days", "procedure": "as §1\nas §2, with “load.” for “load. The sample pool was centrifuged for 2 minutes at 2,800 xg, and the supernatant was transferred to mice by oral gavage for three consecutive days according to previously published protocols. Mice were moved to clean cages every two days to minimize the coprophagia and to prevent reinoculation from old feces.”"}, "[7]": {"conditions": "genus level, fecal samples, among control, carnitine, savory, parsley and rosemary groups, 40 days"}}, "data": [{"smiles": "C[N+](C)(C)C[C@H](O)CC(=O)[O-]", "note": "[carnitine, L-carnitine]", "values": [{"measurement": "plasma levels of AAS", "setting": "[1]", "result": "no significant effects"}, {"measurement": "plasma levels of GGS", "setting": "[1]", "result": "no significant effects"}, {"measurement": "plasma pentosidine levels", "setting": "[1]", "result": "no differences"}, {"measurement": "plasma cardiovascular disease markers (Se-selectin, sICAM-1, Precam-1, sP-selectin, PAI-1 and thrombomodulin)", "setting": "[2]", "result": "no significant differences"}, {"measurement": "relative abundance at the family and genus levels", "setting": "[3]; L-carnitine (0.02%, w/v) in drinking water for 40 days, carnitine group vs control group", "result": "no differences"}, {"measurement": "Chao1 index (alpha diversity)", "setting": "[3]; [7]", "result": "no significant differences"}, {"measurement": "Shannon index (alpha diversity)", "setting": "[3]; [7]", "result": "no significant differences"}, {"measurement": "plasma L-carnitine levels", "setting": "[4]", "result": "significant increase"}, {"measurement": "plasma TMA levels", "setting": "[4]", "result": "significant increase"}, {"measurement": "plasma TMAO levels", "setting": "[4]", "result": "no significant differences"}, {"measurement": "fecal levels of SCFA species (acetic, butyric and propionic acids)", "setting": "[5]", "result": "no significant differences"}, {"measurement": "plasma IFNγ levels", "setting": "[6]; carnitine group vs control group", "result": "significant increase"}, {"measurement": "plasma CXCL10 levels", "setting": "[6]; vs control group", "result": "significant increase"}]}]}
